In ChEMBL document CHEMBL5360557 (Eur J Med Chem, 2023):
Active and inactive are the calls of the source. The calls are words filed in the database; no cut-off is given here.

Tests used:
[1] = biological target: T1, Cholinesterase (Homo sapiens, UniProt P06276); assay: Inhibition of human BuChE using butyrylthiocholine iodide as substrate incubated for 1 min by spectrophotometry based Ellman's method
[2] = biological target: T2, Acetylcholinesterase (Homo sapiens, UniProt P22303); assay: Inhibition of human AChE using acetylthiocholine iodide as substrate incubated for 1 min by spectrophotometry based Ellman's method
[3] = in vitro; conditions: PAMPA
Description: Permeability of the compound incubated for 3 to 6 hrs by PAMPA-BBB assay

[4] = biological target: T1, Cholinesterase; assay: Inhibition of recombinant human BuChE using butyrylthiocholine iodide as substrate at 10 uM preincubated with enzyme for 5 mins followed by substrate addition and measured after 1 min by Ellman's method relative to control; conditions: time 6.0 min
[5] = biological target: T2, Acetylcholinesterase; assay: Inhibition of recombinant human AChE using acetylthiocholine iodide as substrate preincubated with enzyme for 5 mins followed by substrate addition and measured after 1 min by Ellman's method
[6] = species on record: Homo sapiens; assay: Selectivity ratio of IC50 for inhibition of human AChE using acetylthiocholine as substrate to IC50 for inhibition of human BuChE using butyrylthiocholine iodide as substrate
[7] = biological target: T1, Cholinesterase; assay: Inhibition of recombinant human BuChE using butyrylthiocholine iodide as substrate preincubated with enzyme for 5 mins followed by substrate addition and measured after 1 min by Ellman's method
[8] = Cytotoxicity against human HepG2 cells assessed as inhibition of cell growth incubated for 24 hrs by MTT assay; type: toxicity, cell-based
[9] = biological target: T1, Cholinesterase; assay: Competitive inhibition of human BuChE using butyrylthiocholine iodide as substrate assessed as inhibition constant preincubated with enzyme for 5 mins followed by substrate addition and measured after 1 min by Lineweaver-Burk plot based Ellman's method
[10] = Cytotoxicity against human SH-SY5Y cells assessed as inhibition of cell growth incubated for 24 hrs by MTT assay; type: toxicity, cell-based
[11] = biological target: T1, Cholinesterase; assay: Competitive inhibition of human BuChE using butyrylthiocholine iodide as substrate assessed as increase in Km with constant apparent Vmax preincubated with enzyme for 5 mins followed by substrate addition and measured after 1 min by Lineweaver-Burk plot based Ellman's method; conditions: time 6.0 min

T1 sequence (P06276 whole entry): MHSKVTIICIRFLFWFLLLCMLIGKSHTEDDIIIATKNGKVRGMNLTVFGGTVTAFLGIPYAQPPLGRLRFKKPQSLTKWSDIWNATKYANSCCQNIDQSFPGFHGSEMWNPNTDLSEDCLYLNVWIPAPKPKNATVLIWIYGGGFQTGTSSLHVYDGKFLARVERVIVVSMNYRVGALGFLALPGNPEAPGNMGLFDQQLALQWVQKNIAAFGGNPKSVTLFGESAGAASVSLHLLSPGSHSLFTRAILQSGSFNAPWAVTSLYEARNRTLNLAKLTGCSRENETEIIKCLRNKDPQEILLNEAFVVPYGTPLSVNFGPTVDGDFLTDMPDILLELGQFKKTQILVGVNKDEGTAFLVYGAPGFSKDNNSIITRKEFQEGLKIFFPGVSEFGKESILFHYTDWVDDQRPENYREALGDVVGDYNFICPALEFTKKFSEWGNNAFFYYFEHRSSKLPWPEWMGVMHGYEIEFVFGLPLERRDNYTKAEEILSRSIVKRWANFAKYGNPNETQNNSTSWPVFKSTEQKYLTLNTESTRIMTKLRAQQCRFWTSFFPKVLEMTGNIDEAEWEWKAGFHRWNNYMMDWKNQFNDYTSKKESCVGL
T2 sequence (P22303 whole entry): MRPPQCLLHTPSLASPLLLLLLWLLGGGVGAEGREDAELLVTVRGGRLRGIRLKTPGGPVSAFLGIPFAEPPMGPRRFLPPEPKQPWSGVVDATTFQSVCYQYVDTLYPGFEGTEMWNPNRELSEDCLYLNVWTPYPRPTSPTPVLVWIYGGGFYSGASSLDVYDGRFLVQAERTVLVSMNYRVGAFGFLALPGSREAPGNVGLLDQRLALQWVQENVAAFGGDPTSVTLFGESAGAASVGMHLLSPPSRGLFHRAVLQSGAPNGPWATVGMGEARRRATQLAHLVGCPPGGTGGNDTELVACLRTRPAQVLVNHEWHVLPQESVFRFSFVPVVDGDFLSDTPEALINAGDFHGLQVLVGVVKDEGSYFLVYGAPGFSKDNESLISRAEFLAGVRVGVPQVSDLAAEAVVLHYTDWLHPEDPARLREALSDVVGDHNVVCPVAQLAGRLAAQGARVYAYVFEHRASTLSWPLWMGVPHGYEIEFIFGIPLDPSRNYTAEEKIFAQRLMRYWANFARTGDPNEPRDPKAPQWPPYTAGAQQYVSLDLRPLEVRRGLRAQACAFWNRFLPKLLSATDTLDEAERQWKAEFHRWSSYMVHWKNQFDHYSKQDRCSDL

SMILES | IC50 [1] | IC50 [2] | Papp [3] | inhibition [4] | IC50 [5] | Ratio IC50 [6] | IC50 [7] | IC50 at 24 h [8] | Ki [9] | IC50 at 24 h [10] | inhibition [11]
COc1cc(CN(C)CCc2ccc(O)cc2)c(-c2cccc3c2N(C)CC3)cc1OC | 910 nM | > 100 µM |  |  |  |  |  |  |  |  | 
CN(CCc1ccc(O)cc1)Cc1cc2c(cc1-c1cccc3c1N(C)CC3)OCO2 |  | > 100 µM |  |  |  |  |  |  |  |  | 
COc1cccc(CNCCc2ccc(O)cc2)c1OCc1ccccc1 |  |  | 19 ×10⁻⁶ cm/s | 94% | > 10 µM | > 42 | 200 nM |  |  |  | 
COc1cccc(CN(CCCc2ccccc2F)C2CCC2)c1OCc1ccccc1 |  |  | 60 ×10⁻⁶ cm/s | 99% | > 10 µM |  | 4 nM | 76 µM | 4.04 nM | 87 µM | Active
CCCN(C/C=C/c1ccccc1)Cc1cccc(OC)c1OCc1ccccc1 |  |  | 41 ×10⁻⁶ cm/s | 97% | > 10 µM |  | 40 nM | 36 µM |  | 174 µM | 
CCCN(CCCc1ccccc1F)Cc1cccc(OC)c1OCc1ccccc1 |  |  | 85 ×10⁻⁶ cm/s | 97% | > 10 µM |  | 20 nM | 33 µM |  | 49 µM | 
COc1cccc(CN(CCCc2ccccc2F)C2CCCC2)c1OCc1ccccc1 |  |  | 61 ×10⁻⁶ cm/s | 99% | > 10 µM |  | 6 nM | 28 µM |  | 55 µM | 
CCCN(CCc1ccc(O)cc1)Cc1cccc(OC)c1OCc1ccccc1 |  |  | 14 ×10⁻⁶ cm/s | 95% | > 10 µM |  | 90 nM | 43 µM |  | 44 µM | 
CCCN(CCCc1ccc(O)cc1)Cc1cccc(OC)c1OCc1ccccc1 |  |  | 16 ×10⁻⁶ cm/s | 98% | > 10 µM |  | 70 nM | 31 µM |  | 44 µM | 
CCCN(CCCc1ccccc1)Cc1cccc(OC)c1OCc1ccccc1 |  |  | 32 ×10⁻⁶ cm/s | 98% | > 10 µM |  | 40 nM | 48 µM |  | > 63 µM | 
CCCN(CCCc1cccc(F)c1)Cc1cccc(OC)c1OCc1ccccc1 |  |  | 27 ×10⁻⁶ cm/s | 97% | > 10 µM |  | 39 nM | 41 µM |  | 123 µM | 
